# Measured values: patent publication US9119780B2, “Triggerable compositions for two-stage, controlled release of proactive chemistry” (Kimberly-Clark Worldwide, Inc., priority 2013, dated 2015)
# Settings: exposure to liquid water under ambient conditions
# Excerpt: The relative hydrophobicity and hydrophilicity of the R groups can be easily adjusted to tailor the hydrolysis rate upon exposure to aqueous medium, and therefore the release rate of the active R*OH.
row,hydrolysis rate,Structure (SMILES)
1,hydrolyzed rapidly,CC1CCC(C(C)C)C(OC(=O)c2ccc[n+](C)c2)C1.[Cl-] (centres unmarked)
2,hydrolyzed rapidly,Cc1ccc(C(C)C)c(OC(=O)c2ccc[n+](C)c2)c1.[Cl-]
